Results as given in article PMC10041525, “New Dual Inhibitors of Bacterial Topoisomerases with Broad-Spectrum Antibacterial Activity and In Vivo Efficacy against Vancomycin-Intermediate Staphylococcus aureus” (Journal of Medicinal Chemistry, 2023).
In brackets after ≈: the same amount, converted by molar mass. Several values for one entry are separate records, joined by “and”; a condition that tells them apart may be missing. Equal values may be shown once. Read-outs that look alike come from different tables or passages of the source.

Tests used:
[1] = tested on: S. aureus ATCC 700699 (VISA); assay type: in vivo, female CD-1 mice; details: for Change in log10CFU/gr of thigh from 2 hour control / Change in log10CFU/gr of thigh from 26 hours control / Average log10CFU/gr of thigh: IV; for Average log10CFU/gr of thigh: 26 h
Description: The neutropenic mouse thigh infection model study was performed by NeoSome Life Sciences, LLC (Lexington, MA, USA) according to NeoSome Institutional Animal Care and Use Committee (IACUC) policies and guidelines as well as NIH’s Office of Laboratory Animal Welfare (OLAW) standards.
Neutropenic mouse thigh infection experiments were performed on female CD-1 mice (Charles River Laboratories, USA). To induce neutropenia, mice received two doses of cyclophosphamide on days −4 and −1 with 150 and 100 mg/kg delivered intraperitoneally (IP), respectively. The inoculum of the testing strain, S. aureus ATCC 700699-P1 (VISA), was prepared from overnight agar plate cultures. To prepare bacterial inoculums, a portion of the plate was resuspended in sterile saline and adjusted to an OD of 0.12 at 625 nm. Next, the resulted bacterial suspension was further diluted to reach an infecting inoculum of 6.0 × 10^5 cfu per each mouse. Plate counts of the inoculum were also performed in each case to confirm the inoculum concentration, and the actual inoculum size was 7.25 × 10^5 cfu/mouse. Mice were inoculated with 100 μL of the prepared bacterial suspension via an intramuscular injection into the right rear thigh. […] The test agent was then dosed via IV administration, to ensure optimal distribution, at 2, 10, and 18 h post-infection. Beginning at 2 h, post-infection mice were dosed with either test article or positive control antibiotic. Mice receiving test agents were dosed intravenously at 10 mL/kg. Linezolid was delivered as a SC dose to ensure optimized exposure, distribution, and efficacy. Four animals were dosed per group. One group of four mice was euthanized at the initiation of therapy (t = 2 h) and cfus determined. All remaining mice were euthanized at 26 h post-infection. At termination, thighs were aseptically excised, weighed, and homogenized to a uniform consistency in 2 mL of sterile saline. The homogenate was serially diluted and plated on bacterial growth media. The cfus were enumerated after overnight incubation.

[2] = tested on: E. coli ATCC 25922, CH3130 ΔtolC, CGSC 5163 D22; assay: MIC, wild-type vs efflux-defective and lps mutant; assay type: cell-based; details: Escherichia coli
P. aeruginosa DNA gyrase = target: T1, P. aeruginosa DNA gyrase (Pseudomonas aeruginosa, UniProt Q9I7C2); assay: supercoiling HTS assay; assay type: biochemical
T1 construct: purchased Inspiralis
T1 sequence (Q9I7C2 whole entry): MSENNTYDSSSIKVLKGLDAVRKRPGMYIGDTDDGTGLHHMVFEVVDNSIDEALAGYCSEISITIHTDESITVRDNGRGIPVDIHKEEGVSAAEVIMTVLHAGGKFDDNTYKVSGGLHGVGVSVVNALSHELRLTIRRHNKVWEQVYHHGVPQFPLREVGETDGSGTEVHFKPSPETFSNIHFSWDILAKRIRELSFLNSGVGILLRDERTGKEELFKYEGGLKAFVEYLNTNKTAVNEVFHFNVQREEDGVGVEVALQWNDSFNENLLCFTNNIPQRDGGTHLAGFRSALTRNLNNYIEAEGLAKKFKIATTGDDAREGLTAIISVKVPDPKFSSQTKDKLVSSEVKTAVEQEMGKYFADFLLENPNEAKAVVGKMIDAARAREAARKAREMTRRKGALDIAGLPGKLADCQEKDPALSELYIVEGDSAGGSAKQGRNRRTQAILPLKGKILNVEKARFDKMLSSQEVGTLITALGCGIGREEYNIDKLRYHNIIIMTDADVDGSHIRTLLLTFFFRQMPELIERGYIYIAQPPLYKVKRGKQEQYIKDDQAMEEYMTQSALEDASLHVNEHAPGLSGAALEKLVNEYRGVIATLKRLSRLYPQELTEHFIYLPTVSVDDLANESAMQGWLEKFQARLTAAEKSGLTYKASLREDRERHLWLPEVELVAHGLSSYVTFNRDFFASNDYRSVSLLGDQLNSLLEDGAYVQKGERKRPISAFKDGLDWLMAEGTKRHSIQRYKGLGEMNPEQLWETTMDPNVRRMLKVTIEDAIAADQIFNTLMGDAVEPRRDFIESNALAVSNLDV
T1 sequence (P48372 whole entry, further chain): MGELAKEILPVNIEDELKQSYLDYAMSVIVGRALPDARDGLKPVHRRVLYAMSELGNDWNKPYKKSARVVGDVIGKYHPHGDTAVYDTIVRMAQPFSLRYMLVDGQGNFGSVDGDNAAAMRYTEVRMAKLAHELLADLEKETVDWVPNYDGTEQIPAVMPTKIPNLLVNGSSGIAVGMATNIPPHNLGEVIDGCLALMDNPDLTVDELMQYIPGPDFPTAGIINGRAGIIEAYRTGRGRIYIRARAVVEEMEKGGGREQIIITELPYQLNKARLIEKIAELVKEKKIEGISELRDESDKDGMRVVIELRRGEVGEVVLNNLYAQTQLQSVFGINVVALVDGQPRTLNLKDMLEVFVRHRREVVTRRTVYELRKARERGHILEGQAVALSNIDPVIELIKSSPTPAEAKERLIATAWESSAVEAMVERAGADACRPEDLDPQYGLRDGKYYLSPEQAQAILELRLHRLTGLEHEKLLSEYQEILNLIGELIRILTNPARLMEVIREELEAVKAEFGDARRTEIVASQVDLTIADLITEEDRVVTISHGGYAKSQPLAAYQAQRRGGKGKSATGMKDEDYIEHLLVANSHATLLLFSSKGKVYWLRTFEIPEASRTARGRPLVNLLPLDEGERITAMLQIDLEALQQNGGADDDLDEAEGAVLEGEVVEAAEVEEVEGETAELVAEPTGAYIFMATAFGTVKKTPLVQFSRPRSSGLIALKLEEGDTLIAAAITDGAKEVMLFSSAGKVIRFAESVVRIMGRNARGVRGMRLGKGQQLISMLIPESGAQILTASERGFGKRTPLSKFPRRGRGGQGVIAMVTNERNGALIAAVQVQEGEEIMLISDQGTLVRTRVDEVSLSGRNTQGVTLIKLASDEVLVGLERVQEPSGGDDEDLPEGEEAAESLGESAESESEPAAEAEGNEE
Description: The assay to determine IC50 values was performed using assay kits from Inspiralis in accordance with previously described procedures.[43] Seven concentrations of the inhibitors were used to determine IC50 values which were then calculated with GraphPad Prism 6.0 software. Three independent measurements were performed to determine IC50 values, and mean values are reported as the final result.

SMILES: Cc1[nH]c(C(=O)Nc2nc3c(N4CCOCC4)cc(C(=O)O)cc3s2)c(Cl)c1Cl [7a, 2-(3,4-Dichloro-5-methyl-1H-pyrrole-2-carboxamido)-4-morpholinobenzo[d]thiazole-6-carboxylic Acid]
- CFU/ g of thigh, single animals ([1]; 10 mg/kg): 1.82E+08 and 2.23E+08 and 2.51E+08 and 1.42E+08
- log CFU, single animals ([1]; 10 mg/kg): 8.26 and 8.35 and 8.40 and 8.15
- Change in log10CFU/gr of thigh from 2 hour control ([1]; 10 mg/kg TID): 2.00
- Change in log10CFU/gr of thigh from 26 hours control ([1]; 10 mg/kg TID): 0.19
- Average log10CFU/gr of thigh ([1]; 10 mg/kg TID): 8.29
- CFU/ g of thigh, single animals ([1]; 25 mg/kg): 4.64E+05 and 4.16E+06 and 1.83E+07 and 9.23E+06
- log CFU, single animals ([1]; 25 mg/kg): 5.67 and 6.62 and 7.26 and 6.97
- reduction compared to 26 h controls ([1]; 25 mg/kg IV): 1.47 log10 cfu
- Change in log10CFU/gr of thigh from 2 hour control ([1]; 25 mg/kg TID): 0.33
- Change in log10CFU/gr of thigh from 26 hours control ([1]; 25 mg/kg TID): -1.47
- Average log10CFU/gr of thigh ([1]; 25 mg/kg TID): 6.63
- CFU/ g of thigh, single animals ([1]; 50 mg/kg): 1.72E+05 and 1.68E+05 and 8.81E+05 and 8.82E+04
- log CFU, single animals ([1]; 50 mg/kg): 5.24 and 5.23 and 5.95 and 4.95
- reduction compared to 26 h controls ([1]; 50 mg/kg IV): 2.76 log10 cfu
- reduction compared to 2 hour infection controls ([1]; 50 mg/kg IV (TID)): 0.96 log10 cfu
- Change in log10CFU/gr of thigh from 2 hour control ([1]; 50 mg/kg TID): -0.96
- Change in log10CFU/gr of thigh from 26 hours control ([1]; 50 mg/kg TID): -2.76
- Average log10CFU/gr of thigh ([1]; 50 mg/kg TID): 5.34
- MIC ([2]; ATCC25922, E. coli ATCC 25922): 8 µg/mL (≈ 17.6 µM)
- MIC ([2]; ATCC25922, E. coli CGSC 5163 D22, lps mutant, hypersensitive): 2 µg/mL (≈ 4.39 µM)
- MIC ([2]; ATCC25922, E. coli CH3130 ΔtolC, efflux-defective): < 0.125 µg/mL
- IC50 (P. aeruginosa DNA gyrase): < 10 nM
